Here are results for one compound from patent US20010041801A1, “Water soluble fullerenes with antiviral activity” (The Regents of the University of California, priority 1994, published 2001).

Structures are written as SMILES. Several values for one entry are separate records, joined by “and”; a condition that tells them apart may be missing. Identical values can stand only once. Entries after “also recorded” stand apart in the source; their conditions may differ. Like-named read-outs stand apart in the source and are kept apart here.

The test system of one series is HIV-1G910-6. Description: microbe, parasite or virus in culture. It is filed as cell-based. The text has this: (§1) The availability of AZT-resistant and -susceptible viruses allowed us to evaluate the compounds of this invention for their susceptibilities to these viruses in acutely infected PBMC in two experiments. […] In the same assay, the EC50 for TIBO [(+)-(5s)-4,5,6,7-tetrahydro-5methyl-6-(3-methyl-2-butenyl)imidazo(4,5,1-jk)(1,4)benzodiazepin-2(1 H)-thione] R82150 increased >500-fold (data not shown).

Series [1] concerns the target T1, recombinant HIV-1 protease (Human immunodeficiency virus type 1 group M subtype B, UniProt P04585).
T1 construct: HIV produces a small, dimeric aspartyl protease which specifically cleaves the polyprotein precursors
Description: Antiprotease assay, method similar to Ido et al. The class given is biochemical. The method, then:
Routine protocols can be followed to determine whether a derivatized buckministerfullerene compound has virucidal properties. […] This method is similar to that described by Ido, et al., J. Biol. Chem., 266:24359-24366, 1991). Inhibition is time dependent, and preincubation with the inhibitor results in greater enzyme inhibition, indicating a slow binding process
(§2) Compound 2c also has antiprotease activity. […] The method used for the assay was similar to that described by Ido, et al., J. Biol. Chem., 266:24359-24366, 1991).

In a further series the target is pepsin (Homo sapiens, UniProt P0DJD8). Kind of series: Pepsin inhibition assay. It is filed as biochemical. The conditions noted are these: 0.028 μM enzyme, 0.2 M sodium citrate pH 2.0, 37° C.; read-out: IC50 against pepsin.
From the text: as §2

A further series has as its system HIV-1III. Kind of series: Antiviral activity in chronically infected H9 cells, virus RT level. The conditions noted are these: Human immunodeficiency virus 1, H9, 144 h, read-out: Antiviral Activity (EC50) in H9 cells infected with HIV-1III. It is filed as cell-based. On the procedure:
(§3) Compound 2c was evaluated for antiviral activity in cells acutely and chronically infected with human immunodeficiency virus (HIV). Reverse transcriptase (RT) levels associated with virus were determined with virus concentrated from cell culture supernatants by high-speed centrifugation to reduce the chances of drug carryover in the enzyme assay using the method described in R. F. Schinazi, et al., Antimicrob. Agents Chemother., 36:2423-2431, 1992.

In another series the test system is Vero cells. Description: Cytotoxicity in Vero cells. The class given is cell-based. The settings on record: b68: up to 100 μM.
Series [2] in a line: Cytotoxicity in Vero cells. The class given is cell-based. The conditions noted are these: African green monkey, Vero cells; day 3.
The next series relates to HIV-1 HI 12.2. Description: Susceptibility of pretherapy AZT-susceptible isolate in acutely infected PBMC. It is filed as cell-based. The settings on record: Human immunodeficiency virus 1, PBMC, read-out: EC50 against pretherapy isolate.
From the text: as §1

A further series concerns the target HIV-1 RT (Human immunodeficiency virus type 1 group M subtype B, UniProt P04585). Description: Inhibition of recombinant p66/51 HIV-1 RT, poly(rA)n.oligo(T)12-18 template-primer. It is filed as biochemical. The settings on record: IC50 Polymerases: HIV-1 RT, cell-free; AZT-5′-triphosphate used for AZT. On the procedure: The compound was also evaluated for its inhibitory effect on recombinant p66/51 HIV-1 RT by using poly(rA)n.oligo(T)12-18 as the template-primer as described in Schinazi, et al. (1992, supra). Compound 2c was active against this enzyme, with a median inhibitory concentration (1C50) of 4.6 μM. This value was of the same order of magnitude as that noted for the antiviral assays (TABLE 3). […] AZT-5′ triphosphate and phosphonoformate (PFA), used as positive controls, were effective and selective against HIV-1 RT.

For series [3], the system named is nevirapine (BI-RG587)-resistant HIV-1. Description: Susceptibility of nevirapine-resistant HIV-1. It is filed as cell-based. The settings on record: Human immunodeficiency virus 1, read-out: EC50 against nevirapine-resistant HIV-1.
The next series addresses DNA polymerase α (Homo sapiens, UniProt P09884). Kind of series: Inhibition of cellular DNA polymerase α, cell-free. The class given is biochemical. The settings on record: AZT-5′-triphosphate used for AZT, read-out: IC50 Polymerases: DNA Polymerase α.
The subject of the next series is HIV-1 LAI. Description: Antiviral activity in acutely infected human PBMC, virus RT level. It is filed as cell-based. The settings on record: Human immunodeficiency virus 1, PBMC, 144 h, read-out: Antiviral Activity (EC50) in PBMC infected with HIVLAI. On the procedure:
as §3

The test system of another series is HIV-2ROD. The description is as above. It is filed as cell-based. The conditions noted are these: Human immunodeficiency virus 2, PBMC, 144 h, read-out: Antiviral Activity (EC50) in PBMC infected with HIV-2ROD. On the procedure:
as §3

A short description of a further series: Solubility in water. The settings on record: pH≧7.

DNA polymerase α, sequence (P09884 whole entry): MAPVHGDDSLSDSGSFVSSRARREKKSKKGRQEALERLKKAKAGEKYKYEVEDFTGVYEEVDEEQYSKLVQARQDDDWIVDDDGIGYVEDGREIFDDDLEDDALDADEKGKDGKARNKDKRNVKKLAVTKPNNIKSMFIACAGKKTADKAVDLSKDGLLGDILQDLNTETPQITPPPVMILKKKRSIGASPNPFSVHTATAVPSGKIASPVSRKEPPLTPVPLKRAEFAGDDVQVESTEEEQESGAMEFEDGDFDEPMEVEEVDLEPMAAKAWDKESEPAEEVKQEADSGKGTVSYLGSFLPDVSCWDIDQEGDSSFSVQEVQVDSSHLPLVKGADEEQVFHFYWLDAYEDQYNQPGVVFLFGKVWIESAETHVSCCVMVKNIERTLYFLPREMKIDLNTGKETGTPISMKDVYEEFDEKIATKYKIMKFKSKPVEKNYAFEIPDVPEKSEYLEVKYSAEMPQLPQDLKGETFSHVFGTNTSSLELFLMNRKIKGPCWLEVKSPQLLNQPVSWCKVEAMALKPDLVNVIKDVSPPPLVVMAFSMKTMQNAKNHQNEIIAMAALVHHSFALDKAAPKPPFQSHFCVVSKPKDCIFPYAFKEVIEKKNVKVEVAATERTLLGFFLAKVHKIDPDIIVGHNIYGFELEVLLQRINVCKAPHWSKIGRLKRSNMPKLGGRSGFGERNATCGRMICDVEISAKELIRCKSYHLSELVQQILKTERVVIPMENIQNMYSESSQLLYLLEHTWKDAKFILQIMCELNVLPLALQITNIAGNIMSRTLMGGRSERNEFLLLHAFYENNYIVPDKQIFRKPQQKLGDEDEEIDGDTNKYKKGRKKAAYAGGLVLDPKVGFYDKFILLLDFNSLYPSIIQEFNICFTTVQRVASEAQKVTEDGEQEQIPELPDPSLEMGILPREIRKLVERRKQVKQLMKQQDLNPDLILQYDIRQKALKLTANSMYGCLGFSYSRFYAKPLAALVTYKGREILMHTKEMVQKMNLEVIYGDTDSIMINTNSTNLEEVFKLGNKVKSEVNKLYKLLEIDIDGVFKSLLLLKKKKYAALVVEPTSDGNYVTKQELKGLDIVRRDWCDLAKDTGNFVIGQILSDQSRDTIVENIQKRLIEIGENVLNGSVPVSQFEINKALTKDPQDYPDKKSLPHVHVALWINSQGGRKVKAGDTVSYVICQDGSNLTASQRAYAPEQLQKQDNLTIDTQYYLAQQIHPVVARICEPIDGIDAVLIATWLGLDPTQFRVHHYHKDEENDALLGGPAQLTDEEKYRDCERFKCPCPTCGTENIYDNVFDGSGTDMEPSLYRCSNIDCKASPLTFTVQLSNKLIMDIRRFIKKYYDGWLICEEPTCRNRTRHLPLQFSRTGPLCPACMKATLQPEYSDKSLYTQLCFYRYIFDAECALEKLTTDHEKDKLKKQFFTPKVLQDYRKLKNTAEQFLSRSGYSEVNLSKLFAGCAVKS
DNA polymerase α, sequence (Q14181 whole entry partner): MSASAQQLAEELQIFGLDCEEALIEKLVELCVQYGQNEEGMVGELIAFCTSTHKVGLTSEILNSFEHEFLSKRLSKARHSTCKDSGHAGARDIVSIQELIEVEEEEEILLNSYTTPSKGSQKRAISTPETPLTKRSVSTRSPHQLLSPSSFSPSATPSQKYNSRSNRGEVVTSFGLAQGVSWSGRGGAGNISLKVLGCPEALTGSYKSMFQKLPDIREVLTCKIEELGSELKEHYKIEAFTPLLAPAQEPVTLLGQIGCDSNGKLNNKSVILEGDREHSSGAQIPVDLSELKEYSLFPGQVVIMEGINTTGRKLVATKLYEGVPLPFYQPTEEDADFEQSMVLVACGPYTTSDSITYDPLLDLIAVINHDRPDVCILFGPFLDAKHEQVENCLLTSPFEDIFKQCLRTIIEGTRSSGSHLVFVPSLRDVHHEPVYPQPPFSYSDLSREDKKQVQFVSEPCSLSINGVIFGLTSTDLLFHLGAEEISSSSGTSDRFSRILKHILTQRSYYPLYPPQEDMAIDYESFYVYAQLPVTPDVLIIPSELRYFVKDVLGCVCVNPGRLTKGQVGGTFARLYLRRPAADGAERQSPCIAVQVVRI
DNA polymerase α, sequence (P49642 whole entry partner): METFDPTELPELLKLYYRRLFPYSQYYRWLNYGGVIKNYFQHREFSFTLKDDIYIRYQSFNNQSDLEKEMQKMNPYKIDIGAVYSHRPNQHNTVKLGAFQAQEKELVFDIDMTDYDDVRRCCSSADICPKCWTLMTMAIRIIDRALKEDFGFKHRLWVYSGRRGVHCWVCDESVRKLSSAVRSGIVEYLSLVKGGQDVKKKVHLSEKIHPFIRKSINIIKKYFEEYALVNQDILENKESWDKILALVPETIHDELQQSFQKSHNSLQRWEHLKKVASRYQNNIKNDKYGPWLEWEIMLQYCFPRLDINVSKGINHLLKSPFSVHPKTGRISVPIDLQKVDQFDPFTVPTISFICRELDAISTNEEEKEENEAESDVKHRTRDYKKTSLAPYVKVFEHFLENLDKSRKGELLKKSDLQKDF
DNA polymerase α, sequence (P49643 whole entry partner): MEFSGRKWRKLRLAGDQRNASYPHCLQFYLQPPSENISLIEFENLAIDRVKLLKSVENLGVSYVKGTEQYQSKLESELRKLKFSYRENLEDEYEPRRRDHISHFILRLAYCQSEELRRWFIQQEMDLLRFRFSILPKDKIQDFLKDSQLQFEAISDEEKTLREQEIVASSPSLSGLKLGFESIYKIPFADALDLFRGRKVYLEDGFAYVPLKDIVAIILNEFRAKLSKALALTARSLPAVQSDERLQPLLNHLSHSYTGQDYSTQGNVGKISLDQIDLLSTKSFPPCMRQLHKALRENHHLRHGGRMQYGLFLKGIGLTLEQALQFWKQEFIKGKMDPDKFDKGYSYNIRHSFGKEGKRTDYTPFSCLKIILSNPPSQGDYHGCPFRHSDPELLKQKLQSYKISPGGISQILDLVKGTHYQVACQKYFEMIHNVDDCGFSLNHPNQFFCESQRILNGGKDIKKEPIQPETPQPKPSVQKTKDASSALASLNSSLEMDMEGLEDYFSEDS
pepsin, sequence (P0DJD8 63-388): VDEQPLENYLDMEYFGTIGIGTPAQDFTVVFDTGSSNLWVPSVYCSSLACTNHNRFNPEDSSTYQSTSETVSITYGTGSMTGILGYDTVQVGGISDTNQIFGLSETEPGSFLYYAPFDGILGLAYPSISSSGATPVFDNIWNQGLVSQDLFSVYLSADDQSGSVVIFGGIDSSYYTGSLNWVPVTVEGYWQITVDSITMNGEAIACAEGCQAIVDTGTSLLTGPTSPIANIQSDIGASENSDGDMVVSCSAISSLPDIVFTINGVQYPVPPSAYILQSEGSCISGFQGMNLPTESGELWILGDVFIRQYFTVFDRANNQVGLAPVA

In the case of `O=C(O)CCC(=O)NCCc1ccc(C2(c3ccc(CCNC(=O)CCC(=O)O)cc3)C34c5c6c7c8c9c%10c(c%11c%12c3c3c5c5c%13c6c6c7c7c9c9c%14c%10c%10c%11c%11c%12c%12c3c3c5c5c%13c%13c6c6c7c9c7c9c%14c%10c%10c%11c%11c%12c3c3c5c5c%13c6c7c6c9c%10c%11c3c56)C824)cc1` [Compound 2c, bis(monosuccinimide) derivative of p,p′-bis(2-aminoethyl)diphenyl-C60], the EC50 in the series on HIV-1G910-6 (Human immunodeficiency virus 1, PBMC, read-out: EC50 against AZT-resistant HIV-1, acutely infected PBMC / lymphocytes) is 2.8 µM; in the series with HIV-1G910-6 (read-out: EC50 against AZT-resistant HIV-1, acutely infected PBMC / lymphocytes) it was 3 µM; in the series on HIV-1III, 10.8 ± 8.2 µM; in the series on HIV-1 HI 12.2 it was 2 to 8 µM; in series [3] it was 8.7 µM; in the series with HIV-1 LAI it was 7.3 ± 5.9 µM. The EC50 in the series with HIV-2ROD is 5.5 ± 3.8 µM. Besides, the IC50 is 2 µM in series [1]; 20 µM on pepsin; 4.6 µM and ~5 µM on HIV-1 RT; 4.9 µM and ~5 µM on DNA polymerase α. Further, the “cytotoxicity in Vero cells” value with Vero cells was “No cytotoxicity; also recorded: noncytotoxic”. Moreover, the IC50 at 3 days in [2] is > 100 µM. The “solubility in water” value in the series “Solubility in water” was “soluble”.
